Source: ChEMBL document CHEMBL1153334, “New cyclic peptide proteasome inhibitors” (Bioorg Med Chem Lett, 2009)

Legend:
[1] = Metabolic stability in human plasma assessed as half life after 360 mins; format: ADME, cell-free
cells [2] = test: cells
Description: Inhibition of caspase-like activity of 20S proteasome beta 1 subunit by cell based assay

cells [3] = test: cells; remark: listed apart in the source
Description: Inhibition of trypsin-like activity of 20S proteasome beta 2 subunit by cell based assay

Compound: COC(=O)/C=C/[C@H](CC(C)C)NC(=O)CC[C@@H]1NC(=O)[C@H](CC(C)C)NC(=O)[C@H](CC(C)C)C(=O)NC(=O)[C@H](C(C)C)NC1=O
- half-life [1]: > 6 h
- IC50 (cells [2]): 273 nM

Compound: COC(=O)/C=C/[C@H](CC(C)C)NC(=O)CC[C@H](NC(=O)[C@H](CC(C)C)NC(=O)[C@H](CC(C)C)C(=O)NC(=O)CN)C(N)=O
- half-life [1]: 0.808 h

Compound: COC(=O)/C=C/[C@H](CC(C)C)NC(=O)CC[C@H](NC(=O)[C@H](CC(C)C)NC(=O)[C@H](CC(C)C)C(=O)NC(=O)[C@@H](N)CO)C(N)=O
- half-life [1]: 1.43 h

Compound: COC(=O)/C=C/[C@H](CC(C)C)NC(=O)CC[C@@H]1NC(=O)[C@H](CC(C)C)NC(=O)[C@H](CC(C)C)C(=O)NC(=O)[C@H](C)NC1=O
- half-life [1]: > 6 h
- IC50 (cells [2]): 123 nM

Compound: COC(=O)/C=C/[C@H](CC(C)C)NC(=O)CC[C@H](NC(=O)[C@H](CC(C)C)NC(=O)[C@H](CC(C)C)C(=O)NC(=O)[C@@H](N)C(C)C)C(N)=O
- half-life [1]: 1.96 h

Compound: COC(=O)/C=C/[C@H](CC(C)C)NC(=O)CC[C@@H]1NC(=O)[C@H](CC(C)C)NC(=O)[C@H](CC(C)C)C(=O)NC(=O)CNC1=O
- half-life [1]: > 6 h
- IC50 (cells [2]): 221 nM
- IC50 (cells [3]): 5830 nM

Compound: COC(=O)/C=C/[C@H](CC(C)C)NC(=O)CC[C@@H]1NC(=O)[C@H](CC(C)C)NC(=O)[C@H](CC(C)C)C(=O)NC(=O)[C@H](CO)NC1=O
- half-life [1]: > 6 h
- IC50 (cells [2]): 91 nM
- IC50 (cells [3]): 6940 nM

Compound: COC(=O)/C=C/[C@H](CC(C)C)NC(=O)CC[C@H](NC(=O)[C@H](CC(C)C)NC(=O)[C@H](CC(C)C)C(=O)NC(=O)[C@H](C)N)C(N)=O
- half-life [1]: 1.22 h
